{"source": "the supplement of paper PMC10307832", "assay_in_all_cases": "relative viability (nuclei count vs DMSO), 5 days (fraction); higher = more cells survive", "key": {"NCI-H441": {"test_system": "NCI-H441", "method_in_brief": "(§1)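 Relative viability equals treated-well nuclei counts divided by vehicle-well nuclei counts. Counts came from 4× images of lung cancer cell lines grown in 1536-well plates for 5 days after pin-tool dosing on the day after seeding. Dosing used one drug alone or a fixed anchor-drug dose plus five library-drug doses (not always all listed) in √10 steps, and values are medians of duplicate plates.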"}, "NCI-H1437": {"test_system": "NCI-H1437", "method_in_brief": "as §1"}, "LOU-NH91": {"test_system": "LOU-NH91", "method_in_brief": "as §1"}, "NCI-H661": {"test_system": "NCI-H661", "method_in_brief": "as §1"}, "CAL-12T": {"test_system": "CAL-12T", "method_in_brief": "as §1"}, "NCI-H3122": {"test_system": "NCI-H3122", "method_in_brief": "as §1"}, "COR-L 105": {"test_system": "COR-L 105", "method_in_brief": "as §1"}, "NCI-H460": {"test_system": "NCI-H460", "method_in_brief": "as §1"}, "NCI-H1666": {"test_system": "NCI-H1666", "method_in_brief": "as §1"}, "LK-2": {"test_system": "LK-2", "method_in_brief": "as §1"}, "BEN": {"test_system": "BEN", "method_in_brief": "as §1"}, "ABC-1": {"test_system": "ABC-1", "method_in_brief": "as §1"}, "EKVX": {"test_system": "EKVX", "method_in_brief": "as §1"}, "NCI-H1650": {"test_system": "NCI-H1650", "method_in_brief": "as §1"}, "NCI-H727": {"test_system": "NCI-H727", "method_in_brief": "as §1"}, "PC-14": {"test_system": "PC-14", "method_in_brief": "as §1"}, "NCI-H2170": {"test_system": "NCI-H2170", "method_in_brief": "as §1"}, "NCI-H2009": {"test_system": "NCI-H2009", "method_in_brief": "as §1"}, "201T": {"test_system": "201T", "method_in_brief": "as §1"}, "HARA": {"test_system": "HARA", "method_in_brief": "as §1"}, "HCC-366": {"test_system": "HCC-366", "method_in_brief": "as §1"}}}
{"compound": "O=c1cc(-c2cccc3c2Sc2ccccc2S3)oc(N2CCOCC2)c1", "note": "+ CS(=O)(=O)N1CCN(Cc2cc3nc(-c4cccc5[nH]ncc45)nc(N4CCOCC4)c3s2)CC1 [Pictilisib] (partner 1 µM)", "values": [{"measurement": "relative viability", "setting": "NCI-H441; first compound 0.08 µM", "value": 0.533}, {"measurement": "relative viability", "setting": "NCI-H441; first compound 0.253 µM", "value": 0.472}, {"measurement": "relative viability", "setting": "NCI-H441; first compound 0.8 µM", "value": 0.513}, {"measurement": "relative viability", "setting": "NCI-H441; first compound 2.53 µM", "value": 0.426}, {"measurement": "relative viability", "setting": "NCI-H441; first compound 8 µM", "value": 0.509}, {"measurement": "relative viability", "setting": "NCI-H1437; first compound 0.08 µM", "value": 0.464}, {"measurement": "relative viability", "setting": "NCI-H1437; first compound 0.253 µM", "value": 0.534}, {"measurement": "relative viability", "setting": "NCI-H1437; first compound 0.8 µM", "value": 0.395}, {"measurement": "relative viability", "setting": "NCI-H1437; first compound 2.53 µM", "value": 0.373}, {"measurement": "relative viability", "setting": "NCI-H1437; first compound 8 µM", "value": 0.37}, {"measurement": "relative viability", "setting": "LOU-NH91; first compound 0.08 µM", "value": 0.519}, {"measurement": "relative viability", "setting": "LOU-NH91; first compound 0.253 µM", "value": 0.542}, {"measurement": "relative viability", "setting": "LOU-NH91; first compound 0.8 µM", "value": 0.438}, {"measurement": "relative viability", "setting": "LOU-NH91; first compound 2.53 µM", "value": 0.504}, {"measurement": "relative viability", "setting": "LOU-NH91; first compound 8 µM", "value": 0.531}, {"measurement": "relative viability", "setting": "NCI-H661; first compound 0.08 µM", "value": 0.352}, {"measurement": "relative viability", "setting": "NCI-H661; first compound 0.253 µM", "value": 0.394}, {"measurement": "relative viability", "setting": "NCI-H661; first compound 0.8 µM", "value": 0.404}, {"measurement": "relative viability", "setting": "NCI-H661; first compound 2.53 µM", "value": 0.35}, {"measurement": "relative viability", "setting": "NCI-H661; first compound 8 µM", "value": 0.446}, {"measurement": "relative viability", "setting": "CAL-12T; first compound 0.08 µM", "value": 0.31}, {"measurement": "relative viability", "setting": "CAL-12T; first compound 0.253 µM", "value": 0.482}, {"measurement": "relative viability", "setting": "CAL-12T; first compound 0.8 µM", "value": 0.418}, {"measurement": "relative viability", "setting": "CAL-12T; first compound 2.53 µM", "value": 0.32}, {"measurement": "relative viability", "setting": "CAL-12T; first compound 8 µM", "value": 0.397}, {"measurement": "relative viability", "setting": "NCI-H3122; first compound 0.08 µM", "value": 0.481}, {"measurement": "relative viability", "setting": "NCI-H3122; first compound 0.253 µM", "value": 0.755}, {"measurement": "relative viability", "setting": "NCI-H3122; first compound 0.8 µM", "value": 0.452}, {"measurement": "relative viability", "setting": "NCI-H3122; first compound 2.53 µM", "value": 0.595}, {"measurement": "relative viability", "setting": "NCI-H3122; first compound 8 µM", "value": 0.568}, {"measurement": "relative viability", "setting": "COR-L 105; first compound 0.08 µM", "value": 0.502}, {"measurement": "relative viability", "setting": "COR-L 105; first compound 0.253 µM", "value": 0.441}, {"measurement": "relative viability", "setting": "COR-L 105; first compound 0.8 µM", "value": 0.362}, {"measurement": "relative viability", "setting": "COR-L 105; first compound 2.53 µM", "value": 0.338}, {"measurement": "relative viability", "setting": "COR-L 105; first compound 8 µM", "value": 0.408}, {"measurement": "relative viability", "setting": "NCI-H460; first compound 0.08 µM", "value": 0.289}, {"measurement": "relative viability", "setting": "NCI-H460; first compound 0.253 µM", "value": 0.452}, {"measurement": "relative viability", "setting": "NCI-H460; first compound 0.8 µM", "value": 0.321}, {"measurement": "relative viability", "setting": "NCI-H460; first compound 2.53 µM", "value": 0.384}, {"measurement": "relative viability", "setting": "NCI-H460; first compound 8 µM", "value": 0.545}, {"measurement": "relative viability", "setting": "NCI-H1666; first compound 0.08 µM", "value": 0.404}, {"measurement": "relative viability", "setting": "NCI-H1666; first compound 0.253 µM", "value": 0.416}, {"measurement": "relative viability", "setting": "NCI-H1666; first compound 0.8 µM", "value": 0.323}, {"measurement": "relative viability", "setting": "NCI-H1666; first compound 2.53 µM", "value": 0.411}, {"measurement": "relative viability", "setting": "NCI-H1666; first compound 8 µM", "value": 0.396}, {"measurement": "relative viability", "setting": "LK-2; first compound 0.08 µM", "value": 0.608}, {"measurement": "relative viability", "setting": "LK-2; first compound 0.253 µM", "value": 0.51}, {"measurement": "relative viability", "setting": "LK-2; first compound 0.8 µM", "value": 0.708}, {"measurement": "relative viability", "setting": "LK-2; first compound 2.53 µM", "value": 0.503}, {"measurement": "relative viability", "setting": "LK-2; first compound 8 µM", "value": 0.725}, {"measurement": "relative viability", "setting": "BEN; first compound 0.08 µM", "value": 0.533}, {"measurement": "relative viability", "setting": "BEN; first compound 0.253 µM", "value": 0.671}, {"measurement": "relative viability", "setting": "BEN; first compound 0.8 µM", "value": 0.531}, {"measurement": "relative viability", "setting": "BEN; first compound 2.53 µM", "value": 0.591}, {"measurement": "relative viability", "setting": "BEN; first compound 8 µM", "value": 0.686}, {"measurement": "relative viability", "setting": "ABC-1; first compound 0.08 µM", "value": 0.62}, {"measurement": "relative viability", "setting": "ABC-1; first compound 0.253 µM", "value": 0.739}, {"measurement": "relative viability", "setting": "ABC-1; first compound 0.8 µM", "value": 0.607}, {"measurement": "relative viability", "setting": "ABC-1; first compound 2.53 µM", "value": 0.666}, {"measurement": "relative viability", "setting": "ABC-1; first compound 8 µM", "value": 0.71}, {"measurement": "relative viability", "setting": "EKVX; first compound 0.08 µM", "value": 0.418}, {"measurement": "relative viability", "setting": "EKVX; first compound 0.253 µM", "value": 0.521}, {"measurement": "relative viability", "setting": "EKVX; first compound 0.8 µM", "value": 0.286}, {"measurement": "relative viability", "setting": "EKVX; first compound 2.53 µM", "value": 0.439}, {"measurement": "relative viability", "setting": "EKVX; first compound 8 µM", "value": 0.47}, {"measurement": "relative viability", "setting": "NCI-H1650; first compound 0.08 µM", "value": 0.509}, {"measurement": "relative viability", "setting": "NCI-H1650; first compound 0.253 µM", "value": 0.53}, {"measurement": "relative viability", "setting": "NCI-H1650; first compound 0.8 µM", "value": 0.507}, {"measurement": "relative viability", "setting": "NCI-H1650; first compound 2.53 µM", "value": 0.522}, {"measurement": "relative viability", "setting": "NCI-H1650; first compound 8 µM", "value": 0.582}, {"measurement": "relative viability", "setting": "NCI-H727; first compound 0.253 µM", "value": 0.442}, {"measurement": "relative viability", "setting": "NCI-H727; first compound 2.53 µM", "value": 0.285}, {"measurement": "relative viability", "setting": "NCI-H727; first compound 8 µM", "value": 0.528}, {"measurement": "relative viability", "setting": "PC-14; first compound 0.08 µM", "value": 0.48}, {"measurement": "relative viability", "setting": "PC-14; first compound 0.253 µM", "value": 0.977}, {"measurement": "relative viability", "setting": "PC-14; first compound 0.8 µM", "value": 0.755}, {"measurement": "relative viability", "setting": "PC-14; first compound 2.53 µM", "value": 0.748}, {"measurement": "relative viability", "setting": "PC-14; first compound 8 µM", "value": 0.668}, {"measurement": "relative viability", "setting": "NCI-H2170; first compound 0.08 µM", "value": 0.31}, {"measurement": "relative viability", "setting": "NCI-H2170; first compound 0.253 µM", "value": 0.342}, {"measurement": "relative viability", "setting": "NCI-H2170; first compound 0.8 µM", "value": 0.312}, {"measurement": "relative viability", "setting": "NCI-H2170; first compound 2.53 µM", "value": 0.287}, {"measurement": "relative viability", "setting": "NCI-H2170; first compound 8 µM", "value": 0.275}, {"measurement": "relative viability", "setting": "NCI-H2009; first compound 0.08 µM", "value": 0.813}, {"measurement": "relative viability", "setting": "NCI-H2009; first compound 0.253 µM", "value": 0.962}, {"measurement": "relative viability", "setting": "NCI-H2009; first compound 0.8 µM", "value": 0.968}, {"measurement": "relative viability", "setting": "NCI-H2009; first compound 2.53 µM", "value": 0.728}, {"measurement": "relative viability", "setting": "NCI-H2009; first compound 8 µM", "value": 0.745}, {"measurement": "relative viability", "setting": "201T; first compound 0.08 µM", "value": 0.652}, {"measurement": "relative viability", "setting": "201T; first compound 0.253 µM", "value": 0.718}, {"measurement": "relative viability", "setting": "201T; first compound 0.8 µM", "value": 0.51}, {"measurement": "relative viability", "setting": "201T; first compound 2.53 µM", "value": 0.616}, {"measurement": "relative viability", "setting": "201T; first compound 8 µM", "value": 0.742}, {"measurement": "relative viability", "setting": "HARA; first compound 0.08 µM", "value": 0.368}, {"measurement": "relative viability", "setting": "HARA; first compound 0.253 µM", "value": 0.378}, {"measurement": "relative viability", "setting": "HARA; first compound 0.8 µM", "value": 0.419}, {"measurement": "relative viability", "setting": "HARA; first compound 2.53 µM", "value": 0.384}, {"measurement": "relative viability", "setting": "HARA; first compound 8 µM", "value": 0.627}, {"measurement": "relative viability", "setting": "HCC-366; first compound 0.08 µM", "value": 0.138}, {"measurement": "relative viability", "setting": "HCC-366; first compound 0.253 µM", "value": 0.129}, {"measurement": "relative viability", "setting": "HCC-366; first compound 0.8 µM", "value": 0.114}, {"measurement": "relative viability", "setting": "HCC-366; first compound 2.53 µM", "value": 0.122}, {"measurement": "relative viability", "setting": "HCC-366; first compound 8 µM", "value": 0.158}]}
